Test results as given in patent US11369588B2, “NADPH production by the 10-formyl-THF pathway, and its use in the diagnosis and treatment of disease” (The Trustees of Princeton University, priority 2014, dated 2022).
“And” between values parts separate entries of the source, which are not always exact repeats. Identical values can stand only once.

Assays:
oxPPP = oxPPP tracing: NADPH labeling from 1-2H-glucose in 3T3-L1 cells; type: cell-based; details: proliferating 3T3-L1 cells, tracer fed 2 h
Procedure: In one embodiment, PPP activity is measured by incubating cultured adipocytes (e.g., 3T3-L1 adipocytes) in the presence of 1-^14C-glucose versus 6-^14C-glucose and detecting the released ^14CO2. The oxPPP releases C1 of glucose as CO2. The 6-^14C-glucose corrects for release of C1 by other pathways, because C1 and C6 are rendered identical by the triose phosphate isomerase step in glycolysis. After determining the oxPPP flux, the cells are provided with 1-^2H-glucose, which selectively labels NADPH in the first step (G6PDH) of the PPP.
Two complimentary methods were used to measure oxPPP activity in the proliferating and differentiating 3T3-L1 cells. First, cells were cultured in the presence of 1-^14C-Glucose versus 6-^14C-Glucose and the release of ^14CO2 was detected. The oxPPP releases C1 of glucose as CO2. The 6-^14C-Glucose corrects for release of C1 by other pathways, because C1 and C6 are rendered identical by the triose phosphate isomerase step in glycolysis. […] Next, cells were fed 1-^2H-Glucose, which selectively labels NADPH in the first step (G6PDH) of the oxPPP, and can therefore be used to determine the fraction of NADPH made by the oxPPP. In the proliferating cells, M+1 NADPH exceeded M+1 NADP+ by ˜16% (FIG. 18). […] In contrast, in the differentiating adipocytes, there was much less NADPH labeling from 1-^2H-Glucose. […]

malic enzyme = assay: Tracing hydride flux through malic enzyme with 2H tracers in 3T3-L1 cells (LC-MS labeling of malate, aspartate, NADPH, fatty acids); type: cell-based; details: for fraction of M+1 aspartate / fraction of M+1 malate / fraction of M+2 malate: differentiating 3T3-L1 adipocytes day 5; for fatty acid 2H-labeling, M+0 fraction / fatty acid 2H-labeling, M+1 fraction / fatty acid 2H-labeling, M+2 fraction: tracer 5 days
Source text: To more directly establish the contribution of malic enzyme to NADPH production, cells are provided with the ^2H-labeled succinate analogue, 2,2,3,3-^2H-dimethyl-succinate, and deuterium labeling is followed through the C2 hydride of malate to NADPH and finally to newly synthesized fatty acid molecules (FIGS. 15A-15F). Although any suitable labeled molecule may be used to trace hydride flux from malate to NADPH and subsequently into fat, it is preferred to use 2,2,3,3-^2H-dimethyl-succinate for the above purpose.
NADPH labeling at its redox active hydride was analyzed by comparing the M+1 fraction of NADPH to NADP+.
Converting the NADPH labeling fraction from 2,2,3,3-^2H-dimethyl-succinate into the fractional NADPH contribution of malic enzyme requires two important corrections: (i) fractional ^2H-labeling of malate's C2 hydride and (ii) the malic enzyme deuterium kinetic isotope effect (approximately 1.5).
2,2,3,3-^2H-dimethyl succinate was used to track hydride transfer mediated by malic enzyme. Tracer addition increased the cellular concentration of succinate without markedly perturbing other metabolite concentrations or fluxes. Labeling from 2,2,3,3-^2H-dimethyl succinate was followed through the C2 hydride of malate to NADPH and finally to newly synthesized fatty acids. NADPH labeling at its redox active hydride was analyzed by comparing the M+1 fraction of NADPH to NADP^+. […] Adjustment for the kinetic isotope effect in hydride transfer from NADPH to fat (˜1.1) (Yuan, Z. et al. (1984) “Elementary Steps in the Reaction Mechanism of Chicken Liver Fatty Acid Synthase,” 259:6748-6751) yields an associated cytosolic NADPH labeling fraction of 3.2%±0.5%, in excellent agreement with the directly measured whole cell NADPH labeling.
The NADPH labeling fraction from [2,2,3,3-^2H] dimethyl succinate was converted into the fractional NADPH contribution of malic enzyme is accordance with Equation 15. Forward flux from 2,2,3,3-^2H-succinate results in 2,3-^2H-malate, i.e., M+2 malate. The observed fraction of M+2 malate was, however, only 1.5%. The larger peak was M+1 malate (10.9%). Reverse flux through malate dehydrogenase can produce M+1 malate labeled at the C3 hydride (3-^2H-malate). As fumarate is symmetric, fumarase will interconvert 3-^2H-malate and 2-^2H-malate. Because malic enzyme will produce NADPH selectively from malate labeled at the C2 hydride, the relative abundance of 2-^2H-malate versus 3-^2H-malate was determined. 3-^2H-malate (and also 2,3-^2H-malate) yields M+1 oxaloacetate and aspartate, whereas 2-^2H-malate yields unlabeled oxaloacetate and aspartate. […] Summing 2-^2H-malate and 2,3-^2H-malate, the fraction of malate that is capable of making NADPH was 7.9%. Thus, while 2,2,3,3-^2H-dimethyl succinate labeled only approximately 3.2% of NADPH, after adjusting for the extent of malate labeling and the malic enzyme kinetic isotope effect, the fraction of NADPH generated via malic enzyme was calculated to be is approximately 60%.
4-^2H-glucose was therefore employed as a metabolic tracer. Cells were grown in 6 cm tissue culture dishes, and the labeled medium was replaced every day, and additionally 2 hours before extracting metabolites. Because labeling of glycolytic and oxPPP intermediates and the redox active hydride of NADPH reaches steady state over approximately 5 min, where for TCA intermediates this can take several hours, to ensure steady-state labeling, oxPPP tracing with 1-^2H-glucose and 1,2-^13C-glucose is performed for a minimum of 30 min and other labeling experiments for a minimum of 12 h. Metabolism is then quenched and metabolites extracted by aspirating media and immediately adding 2 mL −80° C. 80:20 methanol:water. After 20 min. of incubation on dry ice, the resulting mixture was scraped, collected into a centrifuge tube, and centrifuged at 10000 g for 5 min. Insoluble pellets were re-extracted with 1 mL −80° C. 80:20 methanol: water on dry ice. […]

[1] = system: methylene-THF oxidation pathway; assay: Folate pathway tracing: NADPH labeling from 2,3,3-2H-serine in 3T3-L1 cells; type: cell-based
HEK293T cells [2] = details: 3 days, DMEM no serine, 5 mM glycine instead of 0.4 mM
HEK293T cells [3] = details: non-growing HEK293T cells, 150 μM H2O2, 5 h
Procedure: Total cytosolic NADPH turnover was measured based on the absolute oxPPP flux divided by the fractional contribution of the oxPPP to total NADPH as measured using NADP2H formation from 1-^2H-glucose. Mean±SD, N=3.

[2H]C1(O)OC(CO)C(O)C(O)C1O (stereo not drawn) [1-^2H-Glucose]
excess of M+1 NADPH over M+1 NADP+ (oxPPP): ~16%

[2H]C([2H])(C(=O)OC)C([2H])([2H])C(=O)OC [2,2,3,3-^2H-dimethyl succinate]
fraction of 2-2H-malate (malic enzyme; M+1 plus M+2 malate minus M+1 aspartate, differentiating 3T3-L1 adipocytes): approximately 6.4%
fraction of NADPH generated via malic enzyme (malic enzyme; after adjusting for malate labeling and malic enzyme kinetic isotope effect, normoxic differentiating 3T3-L1 adipocytes): approximately 60%
fraction of malate capable of making NADP2H (2-2H-malate plus 2,3-2H-malate) (malic enzyme; differentiating 3T3-L1 adipocytes): 7.9%
fraction of M+1 aspartate (malic enzyme): 6.0%
fraction of M+1 malate (malic enzyme): 10.9%
fraction of M+2 malate (malic enzyme): 1.5%
average hydride 2H-labeling fraction of a set of abundant fatty acids (malic enzyme; differentiating 3T3-L1 adipocytes, newly synthesized fatty acids only): 2.87%±0.31%
fatty acid 2H-labeling, M+0 fraction (malic enzyme; differentiating 3T3-L1 cells): approximately 60%
fatty acid 2H-labeling, M+1 fraction (malic enzyme; differentiating 3T3-L1 cells): ~30%
fatty acid 2H-labeling, M+2 fraction (malic enzyme; differentiating 3T3-L1 cells): ~10%
total adipocyte (whole cell) NADPH labeled at redox active hydride (malic enzyme; differentiating (day 5) 3T3-L1 adipocytes, tracer fed 24 h): 3.4%±0.3%
fatty acid 2H-labeling, M+0 fraction (malic enzyme; proliferating 3T3-L1 cells): 100%

[2H]C([2H])(O)[C@]([2H])(N)C(=O)O [2,3,3-^2H-serine]
labeling of NADPH at its redox active hydride [1]: approximately 3%

[2H][C@@]1(O)[C@@H](CO)OC(O)[C@H](O)[C@@H]1O (stereo partly drawn) [4-^2H-glucose]
fraction of M+1 aspartate (malic enzyme): 4.3% and 4.3 ± 0.1%
fraction of M+1 malate (malic enzyme): 12.3% and 12.3 ± 0.1%
fraction of M+2 malate (malic enzyme): 0.3% and 0.3 ± 0.0%
fatty acid 2H-labeling, M+0 fraction (malic enzyme; differentiating 3T3-L1 cells): approximately 60%
fatty acid 2H-labeling, M+1 fraction (malic enzyme; differentiating 3T3-L1 cells): ~35%
fatty acid 2H-labeling, M+2 fraction (malic enzyme; differentiating 3T3-L1 cells): ~5%
fatty acid 2H-labeling, M+0 fraction (malic enzyme; proliferating 3T3-L1 cells): 100%

NCC(=O)O [glycine]
cell growth (relative cell number) (HEK293T cells [2]): inhibit cell growth
relative NADPH/NADP+ ratio (HEK293T cells [2]): decrease the NADPH/NADP+ ratio

OO [hydrogen peroxide]
total cytosolic NADPH production rate (HEK293T cells [3]): 5.5 nmol/µL/h
